Laboratory results reported in the supplement of paper PMC10290057.
“And” between values parts separate entries of the source, which are not always exact repeats. Equal values may be shown once. Where a name gives a salt, the structure may show the parent alone.

Experiments:
[1] = tested on: HCT116; experiment: efficacy (fitted maximal change in viability relative to DMSO control); higher = less cytotoxic (negative = loss of viability); settings: 48 h
[2] = tested on: HCT116; experiment: AC50 cell viability (CellTiter-Glo); higher = less potent; settings: 48 h
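For AC50 cell viability (CellTiter-Glo) in this document: HCT116 colorectal carcinoma cells screened at five concentrations per compound, luminescent viability scaled between DMSO wells and empty wells on each plate, curves fitted per compound.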
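For efficacy (fitted maximal change in viability relative to DMSO control) in this document: Luminescence-based viability readout, five doses per compound, normalized against on-plate DMSO and empty-well controls, followed by dose-response curve fitting for every drug.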

| Compound | efficacy [1] | AC50 cell viability [2] |
| --- | --- | --- |
| O=C(/C=C\n1cnc(-c2cc(C(F)(F)F)cc(C(F)(F)F)c2)n1)N1CC(F)(F)C1 [KPT-276] | -75.6% | 0.59 µM |
| Nc1ccc(/C=C/C(=O)NCc2cc3cc(-c4ccc(C(=O)N5CCC(F)(F)CC5)cc4)cc(-c4ccc(F)cc4)c3o2)cn1 [KPT-9274] | -91.7% | 0.59 µM |
| NC(CO)(CO)CCc1ccc(Sc2cccc(OCc3ccccc3)c2)cc1Cl [KRP-203] | -92.6% | 7.42 µM |
| O=C/1\C=C(/OC(=C1)/C2=C3SC4=C(SC3=CC=C2)C=CC=C4)N5CCOCC5 [KU-0064] | -77.5% | 16.6 µM |
| O=C(c1ccc(/C=C/c2n[nH]c3ccccc23)cc1)N1CCNCC1 [KW-2449] | -96.6% | 8.33 µM |
| CCc1c(O)cc(O)c(C(=O)c2ccc(OCCN3CCOCC3)c(OC)c2)c1CC(=O)N(CCOC)CCOC [KW-2478] | -53.2% | 0.833 µM |
| O=C(Cc1ccc(-c2ccc(OCCN3CCOCC3)cc2)cn1)NCc1ccccc1 [KX-01] | -59.6% | 0.0833 µM |
| N[S+](=O)([O-])c1ccc(NC(=S)N2CCN(C/C=C/c3ccccc3)CC2)cc1 [LF3] | -42.2% | 2.95 µM |
| Cc1cc(-c2ncc(CC(=O)Nc3ccc(-c4cnccn4)cn3)cc2C)ccn1 [LGK-974] | -52.5% | 16.6 µM |
| N[S+](=O)([O-])c1cccc2c1C(=O)c1cccc(O)c1C2=O [LLL-12] | -88% | 0.833 µM |
| Cc1cn(CCN2CCN(c3ccccc3-c3cc(C#N)cc(C(=O)NCCCN4CCCC4)c3)CC2)c2ccccc12 [LLY-507] | -130% | 26.3 µM |
| COC1=C(OC)C=C\2C(=C1)C(=O)N(CCCNCCO)\C3=C2C(=O)C4=C3C=C5OCOC5=C4 [LMP-744] | -99.5% | 4.17 µM |
| COc1cc(C(=O)N2CCC(N3CCN(C)CC3)CC2)ccc1Nc1ncc2c(n1)N(C)c1ccccc1C(=O)N2C [LRRK2-IN-1] | -94.6% | 6.61 µM |
| Cc1c[nH]c2ncnc(N3CCC(CN)(C(=O)Nc4cccc(OC(=O)N(C)C)c4)CC3)c12 [LX-7101] | -68.9% and -70.5% | 14.8 µM and 11.8 µM |
| CC1(N)CCN(c2cccnc2NC(=O)c2nc(-c3ncccc3C(F)(F)F)cnc2N)CC1 [LXS-196] | -70.1% | 16.6 µM |
| C[S+](=O)([O-])CCNCc1ccc(-c2ccc3ncnc(Nc4ccc(OCc5cccc(F)c5)c(Cl)c4)c3c2)o1 [Lapatinib] | -99.2% | 16.6 µM |
| CCN(C(=O)C/1=C(O)/C2=C(C=CC=C2Cl)N(C)C1=O)C3=CC=CC=C3 [Laquinimod] | -65.8% | 10.5 µM |
| Cc1oncc1C(=O)Nc1ccc(C(F)(F)F)cc1 [Leflunomide] | -31.2% | 3.32 µM |
| COc1cc2nccc(Oc3ccc(NC(=O)NC4CC4)c(Cl)c3)c2cc1C(N)=O [Lenvatinib] | -61.7% | 26.3 µM |
| CCC(=C/[C@H](C)C/C=C/C(C)=C/[C@@H](C)C(=O)[C@@H](C)[C@H](O)[C@@H](C)C/C(C)=C/C(=O)O)/C=C/[C@@H]1OC(=O)C=C[C@@H]1C [Leptomycin B] | -80.9% | 0.00372 µM |
| C[C@@]12O[C@@H](C[C@]1(O)CO)n1c3ccccc3c3c4c(c5c6ccccc6n2c5c31)CNC4=O [Lestaurtinib] | -63.8% | 1.05 µM |
| CCC[C@H](Nc1nc(-c2ccc(NC(=O)NCC)c(OC)c2)ncc1C)c1cccnc1 [Lexibulin hydrochloride] | -73.5% | 0.0742 µM |
| Cc1ccc(F)c(NC(=O)Nc2ccc(-c3cccc4[nH]nc(N)c34)cc2)c1 [Linifanib] | -90.4% | 9.34 µM |
| C[C@]1(O)CC(C1)C2=NC(=C3[N]2C=CN=C3N)C4=CC5=C(C=C4)C=CC(=N5)C6=CC=CC=C6 (stereo not drawn) [Linsitinib] | -46.3% | 23.5 µM |
| Nc1nc(OCc2cc(Br)cs2)c2[nH]cnc2n1 [Lomeguatrib] | -56% | 18.6 µM |
| NC(=O)N1CCC(CC(=O)N2CCC([C@H]3c4ncc(Br)cc4CCc4cc(Cl)cc(Br)c43)CC2)CC1 [Lonafarnib] | -100% | 18.6 µM |
| CN(C)C(=O)C(CCN1CCC(O)(c2ccc(Cl)cc2)CC1)(c1ccccc1)c1ccccc1 [Loperamide hydrochloride] | -98.7% | 18.6 µM |
| CC1Oc2cc(cnc2N)-c2c(nn(C)c2C#N)CN(C)C(=O)c2ccc(F)cc21 (stereo not drawn) [Lorlatinib] | -46.2% | 14.8 µM |
| C[C@H]1Oc2cc(cnc2N)-c2c(nn(C)c2C#N)CN(C)C(=O)c2ccc(F)cc21 [Lorlatinib] | -33.7% | 0.372 µM |
